The text below walks through data of US20250332173A1, “COMPOUNDS AND METHODS FOR MODULATING NUCLEIC ACID SPLICING” (REMIX THERAPEUTICS INC., priority 2021, published 2025).

For assay [1], the system named is K562 (human chronic myelogenous leukemia) cells. Kind of assay: Cell Titer Glo 2.0 cell viability assay. Type of assay: cell-based. The following applies: Homo sapiens, K562, 72 h, K562 cells, 72 hours, Cell Titer Glo 2.0; read-out: K562 GI50.
The next assay relates to Target C. Kind of assay: RT-qPCR splicing assay panel, Target C canonical junction (CJ) mRNA. Type of assay: cell-based, human. The following applies: Homo sapiens; Table 5 panel; canonical junction qPCR; compound concentration having 50% response in CJ decrease; read-out: Target C IC50 (decrease in CJ mRNA levels). The method, boiled down: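 Read-out is canonical exon-exon junction mRNA quantified by RT-qPCR against a GAPDH, GUSB or PPIA control. Cells (A673 or K562) received compound for 24 h, top final dose 10 uM in an 11-point 3-fold series.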

Another assay concerns HTT mRNA. Kind of assay: RT-qPCR splicing assay, HTT canonical junction (CJ) and alternative junction (AJ) mRNA. It is filed as cell-based, human. The following applies: Homo sapiens; for AC50: increase in HTT alternative junction (AJ) mRNA, read-out: HTT AJ AC50. The method, boiled down: (§1)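 A673 cells (normalized to PPIA) or K562 cells (normalized to GAPDH or GUSB) were treated 24 h at 37 °C with an 11-point 3-fold dilution series, top 10 uM, DMSO ≤0.25%. Cell lysates went to one-step RT-qPCR measuring canonical- and alternative-junction MYB or HTT transcripts.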

A further assay has as its system MYB mRNA. Kind of assay: RT-qPCR splicing assay, MYB canonical junction (CJ) and alternative junction (AJ) mRNA. It is filed as cell-based, human. To be noted: Homo sapiens; for AC50: increase in MYB alternative junction (AJ) mRNA, read-out: MYB AJ AC50. The method, boiled down:
as §1

Where [2] appears, read: decrease in HTT canonical junction (CJ) mRNA, RT-qPCR, read-out: HTT CJ IC50.
Setting [3] is: Table 5 panel, canonical junction qPCR, compound concentration having 50% response in CJ decrease, read-out: HTT IC50 (decrease in CJ mRNA levels).
The mark [4] stands for this setting: Table 5 panel, canonical junction qPCR, compound concentration having 50% response in CJ decrease, read-out: MYB IC50 (decrease in CJ mRNA levels).
Setting [5] is: decrease in MYB canonical junction (CJ) mRNA, RT-qPCR, read-out: MYB CJ IC50.

Molecules are shown by their SMILES. Like-named read-outs stand apart in the source and are kept apart here.

As to `Cc1cn2nc(-c3ccc4c(c3F)CCN(C3CCNCC3)C4=O)cc(C)c2n1` [Compound 188], the GI50 in assay [1] was in the range of 1000 to 10000 nM. The IC50 in the assay with Target C was in the range of 1000 to 10000 nM; with HTT mRNA (setting [2]), 1000 to 10000 nM; in the assay with HTT mRNA (setting [3]), 1000 to 10000 nM; in the assay with MYB mRNA (setting [4]) it was 1000 to 10000 nM; in the assay on MYB mRNA (setting [5]) it was 100 to 1000 nM. For the same compound, the AC50 in the assay with HTT mRNA (RT-qPCR) and with MYB mRNA (RT-qPCR) was 1000 to 10000 nM in each case.

On to `CN1CCC(Nc2ccc3c(=O)n(-c4ccc5cn(C)nc5c4)cnc3c2)CC1` [Compound 203], for which the GI50 in assay [1] was over 10000 nM. Besides, the IC50 with Target C, in the assay on HTT mRNA (setting [2]), in the assay with HTT mRNA (setting [3]), in the assay with MYB mRNA (setting [4]) and in the assay on MYB mRNA (setting [5]) was over 10000 nM throughout. Also, the AC50 in the assay with HTT mRNA (RT-qPCR) and with MYB mRNA (RT-qPCR) was over 10000 nM throughout.

In the case of `Cn1cc2ccc(-n3cnc4cc(NC5CCNCC5)ccc4c3=O)cc2n1` [Compound 204], in assay [1], the GI50 is over 10000 nM. Further, the IC50 with Target C, in the assay on HTT mRNA (setting [2]), in the assay on HTT mRNA (setting [3]), in the assay with MYB mRNA (setting [4]) and with MYB mRNA (setting [5]) was over 10000 nM each time. Also, the AC50 with HTT mRNA (RT-qPCR) and in the assay with MYB mRNA (RT-qPCR) was over 10000 nM throughout.

On to `Cc1c(O)c(-c2ncc3c(=O)n(C4CCNCC4)cc(C)c3n2)cc2cn(C)nc12` [Compound 1191], for which the concentration for 50% growth inhibition (GI50) in assay [1] was under 100 nM. The IC50 is 100 to 1000 nM with Target C; 100 to 1000 nM in the assay on HTT mRNA (setting [2]); under 100 nM with HTT mRNA (setting [3]); under 100 nM with MYB mRNA (setting [4]); under 100 nM with MYB mRNA (setting [5]). The AC50 in the assay with HTT mRNA (RT-qPCR) and with MYB mRNA (RT-qPCR) was under 100 nM throughout.

As to `Cc1cn2cc(-c3cc4ccn(C5CCNCC5)c(=O)c4cn3)cc(F)c2n1` [Compound 1196], the 50% growth inhibitory concentration (GI50) in assay [1] was in the range of 100 to 1000 nM. Besides, the IC50 is 100 to 1000 nM in the assay with Target C; 100 to 1000 nM in the assay on HTT mRNA (setting [2]); 100 to 1000 nM in the assay on HTT mRNA (setting [3]); under 100 nM in the assay on MYB mRNA (setting [4]); under 100 nM with MYB mRNA (setting [5]). Also, the AC50 is 100 to 1000 nM in the assay with HTT mRNA (RT-qPCR) and under 100 nM with MYB mRNA (RT-qPCR).

On to `Cc1cn2nc(-c3cc4ccn(C5CCNCC5)c(=O)c4cn3)cc(C)c2n1` [Compound 1198, 6-(2,8-dimethylimidazo[1,2-b]pyridazin-6-yl)-2-(piperidin-4-yl)-2,7-naphthyridin-1(2H)-one], for which the GI50 in assay [1] lay within 100 to 1000 nM. Moreover, the IC50 in the assay on Target C, in the assay on HTT mRNA (setting [2]), in the assay on HTT mRNA (setting [3]), with MYB mRNA (setting [4]) and with MYB mRNA (setting [5]) was 100 to 1000 nM in each case. Besides, the AC50 in the assay on HTT mRNA (RT-qPCR) and with MYB mRNA (RT-qPCR) was 100 to 1000 nM throughout.

As to `Cn1cc2cc(-c3cc4ccn(C5CCNCC5)c(=O)c4cn3)c(O)c(F)c2n1` [Compound 1199], the concentration for 50% growth inhibition (GI50) in assay [1] was 1000 to 10000 nM. Also, the IC50 in the assay on Target C fell in the range of 1000 to 10000 nM; in the assay with HTT mRNA (setting [2]), 1000 to 10000 nM; with HTT mRNA (setting [3]) it was 1000 to 10000 nM; in the assay on MYB mRNA (setting [4]), 1000 to 10000 nM; in the assay with MYB mRNA (setting [5]), 100 to 1000 nM. Besides, the AC50 in the assay on HTT mRNA (RT-qPCR) and in the assay on MYB mRNA (RT-qPCR) was 1000 to 10000 nM throughout.

On to `Cc1cc(-c2cc3ccn(C4CCNCC4)c(=O)c3cn2)cc2cn(C)nc12` [Compound 1204, 6-(2,7-dimethyl-2H-indazol-5-yl)-2-(piperidin-4-yl)-2,7-naphthyridin-1(2H)-one], for which the concentration for 50% growth inhibition (GI50) in assay [1] lay within 100 to 1000 nM. The IC50 was 1000 to 10000 nM with Target C; 100 to 1000 nM in the assay on HTT mRNA (setting [2]); 100 to 1000 nM in the assay with HTT mRNA (setting [3]); 100 to 1000 nM in the assay with MYB mRNA (setting [4]); 100 to 1000 nM in the assay on MYB mRNA (setting [5]). The concentration at half-maximal activity (AC50) in the assay with HTT mRNA (RT-qPCR) and with MYB mRNA (RT-qPCR) was 100 to 1000 nM in each case.

As for `Cc1cn2cc(-c3cc4ccn(C5CCNCC5)c(=O)c4cn3)nc(C)c2n1` [Compound 1205, 6-(2,8-dimethylimidazo[1,2-a]pyrazin-6-yl)-2-(piperidin-4-yl)-2,7-naphthyridin-1(2H)-one], the GI50 in assay [1] lay within 100 to 1000 nM. In addition, the IC50 with Target C, in the assay on HTT mRNA (setting [2]), in the assay with HTT mRNA (setting [3]), with MYB mRNA (setting [4]) and with MYB mRNA (setting [5]) was 100 to 1000 nM each time. The AC50 in the assay on HTT mRNA (RT-qPCR) and in the assay on MYB mRNA (RT-qPCR) was 100 to 1000 nM throughout.

Regarding `Cc1cc(-c2cc3ccn(C4CCN(C)CC4)c(=O)c3cn2)cc2cn(C)nc12` [Compound 1206, 6-(2,7-dimethyl-2H-indazol-5-yl)-2-(1-methylpiperidin-4-yl)-2,7-naphthyridin-1(2H)-one], the GI50 in assay [1] is 1000 to 10000 nM. In addition, the IC50 in the assay with Target C was over 10000 nM; in the assay with HTT mRNA (setting [2]) it was over 10000 nM; in the assay with HTT mRNA (setting [3]) it was over 10000 nM; with MYB mRNA (setting [4]), 100 to 1000 nM; with MYB mRNA (setting [5]) it was 1000 to 10000 nM. Besides, the AC50 is over 10000 nM in the assay on HTT mRNA (RT-qPCR) and 100 to 1000 nM in the assay on MYB mRNA (RT-qPCR).

As for `CCN1CCC(n2ccc3cc(-c4cc(C)c5nn(C)cc5c4)ncc3c2=O)CC1` [Compound 1207, 6-(2,7-dimethyl-2H-indazol-5-yl)-2-(1-ethylpiperidin-4-yl)-2,7-naphthyridin-1(2H)-one], the GI50 in assay [1] lay in the range of 1000 to 10000 nM. Also, the IC50 in the assay on Target C, in the assay on HTT mRNA (setting [2]), in the assay with HTT mRNA (setting [3]), with MYB mRNA (setting [4]) and with MYB mRNA (setting [5]) was 1000 to 10000 nM in each case. In addition, the AC50 in the assay on HTT mRNA (RT-qPCR) and in the assay on MYB mRNA (RT-qPCR) was 1000 to 10000 nM throughout.

For the compound `Cc1cc(-c2cc3ccn(C4CCN(C5CC5)CC4)c(=O)c3cn2)cc2cn(C)nc12` [Compound 1208, 2-(1-cyclopropylpiperidin-4-yl)-6-(2,7-dimethyl-2H-indazol-5-yl)-2,7-naphthyridin-1(2H)-one], the GI50 in assay [1] is over 10000 nM. Also, the IC50 with Target C is over 10000 nM; in the assay with HTT mRNA (setting [2]), over 10000 nM; in the assay on HTT mRNA (setting [3]), over 10000 nM; in the assay with MYB mRNA (setting [4]), 1000 to 10000 nM; with MYB mRNA (setting [5]), 1000 to 10000 nM. Further, the AC50 in the assay with HTT mRNA (RT-qPCR) is over 10000 nM; with MYB mRNA (RT-qPCR) it was 1000 to 10000 nM.

For `Cc1cc(-c2cc3ccn(C4CCN(C5COC5)CC4)c(=O)c3cn2)cc2cn(C)nc12` [Compound 1209, 6-(2,7-dimethyl-2H-indazol-5-yl)-2-(1-(oxetan-3-yl)piperidin-4-yl)-2,7-naphthyridin-1(2H)-one-1], in assay [1], the 50% growth inhibitory concentration (GI50) was 100 to 1000 nM. In addition, the IC50 with Target C, in the assay with HTT mRNA (setting [2]), with HTT mRNA (setting [3]), in the assay on MYB mRNA (setting [4]) and in the assay on MYB mRNA (setting [5]) was 100 to 1000 nM throughout. In addition, the AC50 in the assay on HTT mRNA (RT-qPCR) and with MYB mRNA (RT-qPCR) was 100 to 1000 nM each time.

Turning to `Cc1cc(-c2cc3ccn(C4CCN(CCO)CC4)c(=O)c3cn2)cc2cn(C)nc12` [Compound 1210, 6-(2.7-dimethyl-2H-indazol-5-yl)-2-(1-(2-hydroxyethyl)piperidin-4-yl)-2,7-naphthyridin-1(2H)-one], in assay [1], the GI50 is 1000 to 10000 nM. In addition, the IC50 in the assay with Target C is over 10000 nM; in the assay with HTT mRNA (setting [2]), over 10000 nM; with HTT mRNA (setting [3]), over 10000 nM; with MYB mRNA (setting [4]) it was 1000 to 10000 nM; with MYB mRNA (setting [5]), 100 to 1000 nM. For the same compound, the half-maximal activity concentration (AC50) in the assay on HTT mRNA (RT-qPCR) is over 10000 nM; in the assay with MYB mRNA (RT-qPCR), 1000 to 10000 nM.

On to `Cn1cc2cc(-c3ncc4c(=O)n(C5CCNCC5)ccc4n3)c(O)cc2n1` [Compound 1211], for which the GI50 in assay [1] was under 100 nM. The IC50 was 1000 to 10000 nM in the assay with Target C; 100 to 1000 nM with HTT mRNA (setting [2]); 100 to 1000 nM in the assay with HTT mRNA (setting [3]); 100 to 1000 nM with MYB mRNA (setting [4]); under 100 nM in the assay on MYB mRNA (setting [5]). Moreover, the AC50 in the assay on HTT mRNA (RT-qPCR) and in the assay with MYB mRNA (RT-qPCR) was 100 to 1000 nM each time.
